Data on 6 compounds can be found in patent publication US8133871B2, “Dihydropseudoerythromycin derivatives” (The Kitasato Institute, priority 2005, dated 2012).

The structures appear in SMILES notation. In brackets after ≈: the same amount, converted by molar mass. Like-named read-outs stand apart in the source and are kept apart here. Some results are limits rather than exact numbers.

One experiment has as its system THP-1 cells. Put plainly: THP-1 differentiation induction-promoting activity. The note with it: Homo sapiens, THP-1; lowest concentration necessary to show 50% activity relative to the activity value of erythromycin A at 100 μM; PMA 1-2 μM, 72-96 hr. In kind it is cell-based. As for the experimental part:
As one index of the anti-inflammatory action of the compound of the present invention, the differentiation induction-promoting activity of THP-1 cell was measured. The measurement was performed as shown below.
THP-1 cells (ATCC No. TIB-202) were adjusted to a concentration of 2×10^5 cells/ml with a medium (RPMI 1640), PMA was added thereto to a final concentration of 1-2 μM, and the mixture was dispensed to each well of a 96 well plate by 100 μl. A solution (100 μl) containing a test substance was adjusted to an appropriate concentration with the medium and added to each well. The mixture was stirred by gently shaking the plate, and incubated under 37° C., 5% CO2 conditions for 72-96 hr. Each well was washed with PBS, a medium containing the viable cell measurement reagent SF (Nacalai Tesque) was added at 100 μl/well and the mixture was incubated under the conditions of 37° C., 5% CO2 for 3-5 hr. The absorbance was measured with a plate reader.
In the Table, the activity value is the lowest concentration necessary for the test compound to show a 50% activity value relative to the activity value of erythromycin A at 100 μM in this experiment.
THP-1 differentiation induction-promoting activity: The lowest concentration necessary for each compound to show 50% activity relative to the activity value of erythromycin A at 100 μM.

A further experiment deals with S. aureus FDA209P. The experiment can be described thus: antibacterial activity, MIC (NCCLS method). In kind it is cell-based. The following applies: Staphylococcus aureus. Here is the method: (§1) The antibacterial activity of the compound of the present invention and erythromycin were measured according to the antibacterial sensitivity measurement method of the US National Committee for Clinical Laboratory Standards (NCCLS). The values of minimum inhibitory concentration (MIC) (μg/ml) of each compound against bacteria are shown therein.

The subject of another experiment is S. marcescens IFO12648. Put plainly: antibacterial activity, MIC (NCCLS method). In kind it is cell-based. The note with it: Serratia marcescens. Here is the method: as §1
Another experiment deals with M. luteus ATCC9341. The experiment can be described thus: antibacterial activity, MIC (NCCLS method). Format: cell-based. The note with it: Micrococcus luteus. Here is the method: as §1
In a further experiment the test system is E. coli NIHJ JC-2. Put plainly: antibacterial activity, MIC (NCCLS method). In kind it is cell-based. The following applies: Escherichia coli, NIHJJC2. Here is the method:
as §1

The next experiment relates to E. aerogen NCTC10006. Put plainly: antibacterial activity, MIC (NCCLS method). In kind it is cell-based. Here is the method: as §1
The test system of a further experiment is S. aureus 8325 (pEP2104). Put plainly: antibacterial activity, MIC (NCCLS method). In kind it is cell-based. The note with it: Staphylococcus aureus. As for the experimental part:
as §1

The next experiment concerns S. aureus Smith. The experiment can be described thus: antibacterial activity, MIC (NCCLS method). The following applies: Staphylococcus aureus. In kind it is cell-based. As for the experimental part:
as §1

The subject of a further experiment is A. calcoaceticus IFO2552. The experiment can be described thus: antibacterial activity, MIC (NCCLS method). Format: cell-based. The note with it: Acinetobacter calcoaceticus. Here is the method:
as §1

For the next experiment, the system named is S. epidermidis IFO12648. The experiment can be described thus: antibacterial activity, MIC (NCCLS method). In kind it is cell-based. The following applies: Staphylococcus epidermidis. As for the experimental part: as §1
In another experiment the test system is E. faecalis ATCC21212. The experiment can be described thus: antibacterial activity, MIC (NCCLS method). In kind it is cell-based. The following applies: Enterococcus faecalis. As for the experimental part:
as §1

In another experiment the test system is K. pneumoniae NCTN9632. The experiment can be described thus: antibacterial activity, MIC (NCCLS method). The note with it: Klebsiella pneumoniae. In kind it is cell-based. As for the experimental part:
as §1

Experiment [1] has as its system trinitrobenzene sulfonate (TNBS)-induced colitis. Put plainly: TNBS-induced colitis in rats, damage of the large intestine scored by the method of Wallace et al. Format: in vivo. The note with it: rat TNBS colitis, oral, control 4.27 ± 0.38. As for the experimental part:
As an index of the treatment effect of the compound of the present invention on ulcerative colitis and Crohn's disease, an action on trinitrobenzene sulfonate (hereinafter to be indicated as TNBS)-induced colitis was examined using rats. Using 8-week-old male SD rats under pentobarbital anesthesia, TNBS solution was injected into the rectum of animals after fasting for 24 hr or longer and abstaining from water for 5 hr or longer. After injection, a silicone stopper was inserted into the anus to perform a treatment for 3.5-4 hr, whereby a colitis model was prepared. Two days after TNBS administration, model animals were selected based on the fecal occult blood score (fecal occult blood slide 5 shionogi II, Shionogi & Co. Ltd.), body weight and body weight changes, feeding condition, observation score of around anus and bleeding. A test drug was orally administered to the model animals two times a day for 6 days. On the next day of the final drug administration, the large intestine (about 15 cm from the anus) was removed after decapitation and exsanguination, and the level of damage was scored by the method of Wallace et al. (Wallace, J. L. et al, Inhibition of leukotriene synthesis markedly accelerates healing in a rat model of inflammatory bowel disease. Gastroenterology 96, 2936 (1989)), based on which the efficacy was evaluated.

Where [2] appears, read: S. aureus FDA209P 2002.1.31, read-out: MIC.
Setting [3] is: M. luteus ATCC9341 2002.1.31, read-out: MIC.
The mark [4] stands for this setting: E. coli NIHJ JC-2 2002.1.31, read-out: MIC.
Where [5] appears, read: S. aureus Smith 2002.1.31, read-out: MIC.
[6] abbreviates: A. calcoaceticus IFO2552 2002.2.1, read-out: MIC.
The mark [7] stands for this setting: S. epidermidis IFO12648 2002.1.31, read-out: MIC.
[8] abbreviates: E. faecalis ATCC21212 2002.1.31, read-out: MIC.
Where [9] appears, read: K. pneumoniae NCTN9632 2002.1.31, read-out: MIC.
Setting [10] is: dose 10 × 2 (mg/kg)/day for 6 days.
The mark [11] stands for this setting: dose 30 × 2 (mg/kg)/day for 6 days.

In the case of `CC[C@H]1OC(=O)O[C@@]1(C)[C@@H]1OC(=O)[C@H](C)C(=O)[C@H](C)[C@@H](O[C@@H]2OC(C)CC(N(C)Cc3ccc(Cl)cc3)C2O)[C@]2(C)CC(C)C(O2)[C@@H]1C` (stereo partly shown) [EM939, de(3′-N-methyl)-3′-N-(p-chlorobenzyl)-de(3-O-cladinosyl)-9-dihydro-3-keto-pseudoerythromycin A 6,9-epoxide 12,13-carbonate], the minimal effective concentration with THP-1 cells was 3 µM. Further, the MIC is > 64 mg/L in the experiment with S. aureus FDA209P (setting [2]); > 64 mg/L with S. marcescens IFO12648 (S. marcescens IFO12648 2002.2.1, read-out: MIC); > 64 mg/L in the experiment with M. luteus ATCC9341 (setting [3]); > 64 mg/L in the experiment on E. coli NIHJ JC-2 (setting [4]); > 64 mg/L with E. aerogen NCTC10006 (E. aerogen NCTC10006 2002.2.1, read-out: MIC); > 64 mg/L against S. aureus 8325 (pEP2104). The MIC in the experiment with S. aureus Smith (setting [5]), with A. calcoaceticus IFO2552 (setting [6]), in the experiment with S. epidermidis IFO12648 (setting [7]), in the experiment on E. faecalis ATCC21212 (setting [8]) and in the experiment on K. pneumoniae NCTN9632 (setting [9]) was > 64 mg/L in each case.
Turning to `CC[C@@H](O)[C@@](C)(O)[C@@H]1OC(=O)[C@H](C)[C@@H](O[C@H]2CC(C)(OC)[C@@H](O)C(C)O2)[C@H](C)[C@@H](O[C@@H]2OC(C)CC(NC)C2O)[C@@]2(C)CC(C)C(O2)[C@@H]1C` (stereo partly shown) [EM901, de(3′-N-methyl)-9-dihydro-pseudoerythromycin A 6,9-epoxide], the minimal effective concentration in the experiment on THP-1 cells turned out to be 30 µM. Further, the MIC against S. aureus FDA209P (FDA209P), against S. marcescens IFO12648 (IFO12648), against M. luteus ATCC9341 (ATCC9341), against E. coli NIHJ JC-2, in the experiment with E. aerogen NCTC10006 and against S. aureus 8325 (pEP2104) was > 128 mg/L each time. Also, the MIC with S. aureus Smith, in the experiment with A. calcoaceticus IFO2552 (IFO2552), in the experiment with S. epidermidis IFO12648 (IFO12648), in the experiment on E. faecalis ATCC21212 (ATCC21212) and in the experiment on K. pneumoniae NCTN9632 (NCTN9632) was > 128 mg/L throughout.
`CC[C@@H](O)[C@@](C)(O)[C@@H]1OC(=O)[C@H](C)[C@@H](O[C@H]2CC(C)(OC)[C@@H](O)C(C)O2)[C@H](C)[C@H](O[C@@H]2OC(C)CC(N(C)Cc3ccc(Cl)cc3)C2O)[C@@]2(C)CC(C)C(O2)[C@@H]1C` (stereo partly shown) [EM905, de(3′-N-methyl)-3′-N-(p-chlorobenzyl)-9-dihydro-pseudoerythromycin A 6,9-epoxide] returned a minimal effective concentration in the experiment with THP-1 cells of 3 µM. Also, the MIC against S. aureus FDA209P (FDA209P), in the experiment with S. marcescens IFO12648 (IFO12648), with M. luteus ATCC9341 (ATCC9341), against E. coli NIHJ JC-2, with E. aerogen NCTC10006 and against S. aureus 8325 (pEP2104) was > 128 mg/L throughout. Further, the MIC in the experiment with S. aureus Smith, with A. calcoaceticus IFO2552 (IFO2552), in the experiment with S. epidermidis IFO12648 (IFO12648), in the experiment with E. faecalis ATCC21212 (ATCC21212) and in the experiment with K. pneumoniae NCTN9632 (NCTN9632) was > 128 mg/L in each case. In addition, the figures for the “Inflammation score in ulcer” value in [1] (setting [10]) and in [1] (setting [11]) were 3.29 ± 0.22 and 2.67 ± 0.40, respectively.
Regarding `CC[C@H]1OC(=O)[C@H](C)[C@@H](O[C@H]2C[C@@](C)(OC)[C@@H](O)[C@H](C)O2)[C@H](C)[C@@H](O[C@@H]2O[C@H](C)C[C@H](N(C)C)[C@H]2O)[C@](C)(O)C[C@@H](C)C(=O)[C@H](C)[C@@H](O)[C@]1(C)O` [erythromycin], the MIC in the experiment with S. aureus FDA209P (setting [2]) was ≤ 0.5 mg/L; in the experiment on S. marcescens IFO12648 (IFO12648), 128 mg/L (≈ 174 µM); in the experiment with M. luteus ATCC9341 (setting [3]), ≤ 0.5 mg/L; with E. coli NIHJ JC-2 (setting [4]), 64 mg/L (≈ 87.2 µM); against E. aerogen NCTC10006, 128 mg/L (≈ 174 µM); against S. aureus 8325 (pEP2104), 64 mg/L (≈ 87.2 µM). Further, the MIC in the experiment on S. aureus Smith (setting [5]) is ≤ 0.5 mg/L; with A. calcoaceticus IFO2552 (setting [6]) it was 4 mg/L (≈ 5.45 µM); with S. epidermidis IFO12648 (setting [7]), ≤ 0.5 mg/L; in the experiment with E. faecalis ATCC21212 (setting [8]), 1 mg/L (≈ 1.36 µM); in the experiment on K. pneumoniae NCTN9632 (setting [9]) it was 32 mg/L (≈ 43.6 µM).
In the experiment with THP-1 cells, `CC[C@@H](O)[C@@](C)(O)[C@@H]1OC(=O)[C@H](C)[C@@H](O[C@H]2CC(C)(OC)[C@@H](O)C(C)O2)[C@H](C)[C@@H](O[C@@H]2OC(C)CC(N3CCOCC3)C2O)[C@]2(C)CC(C)C(O2)[C@@H]1C` (stereo partly shown) [EM914, de(3′-dimethylamino)-3′-morpholino-9-dihydro-pseudoerythromycin A 6,9-epoxide] came in with a minimal effective concentration of 100 µM. The MIC against S. aureus FDA209P (FDA209P), in the experiment on S. marcescens IFO12648 (IFO12648), with E. coli NIHJ JC-2, against E. aerogen NCTC10006, in the experiment with S. aureus 8325 (pEP2104) and against S. aureus Smith was > 128 mg/L throughout. Moreover, the MIC in the experiment on A. calcoaceticus IFO2552 (IFO2552), in the experiment on E. faecalis ATCC21212 (ATCC21212) and against K. pneumoniae NCTN9632 (NCTN9632) was > 128 mg/L each time. In addition, the figures for the “Inflammation score in ulcer” value in experiment [1] (setting [10]) and in experiment [1] (setting [11]) were 2.93 ± 0.41 and 2.69 ± 0.33, respectively.
`CC[C@@H](O)[C@@](C)(O)[C@@H]1OC(=O)[C@H](C)[C@@H](O[C@H]2CC(C)(OC)[C@@H](O)C(C)O2)[C@H](C)[C@@H](O[C@@H]2OC(C)CC(N(C)C)C2O)[C@@]2(C)CC(C)C(O2)[C@@H]1C` (stereo partly shown) [EM900, 9-dihydro-pseudoerythromycin A 6,9-epoxide] displayed a minimal effective concentration in the experiment with THP-1 cells of 30 µM. For the same compound, the MIC with S. aureus FDA209P (FDA209P) was > 128 mg/L; against S. marcescens IFO12648 (IFO12648), > 128 mg/L; in the experiment on M. luteus ATCC9341 (setting [3]) it was 128 mg/L (≈ 178 µM); in the experiment with E. coli NIHJ JC-2, > 128 mg/L; in the experiment on E. aerogen NCTC10006 it was > 128 mg/L; in the experiment on S. aureus 8325 (pEP2104), > 128 mg/L. The MIC in the experiment with S. aureus Smith, in the experiment on A. calcoaceticus IFO2552 (IFO2552), in the experiment with S. epidermidis IFO12648 (IFO12648), in the experiment with E. faecalis ATCC21212 (ATCC21212) and against K. pneumoniae NCTN9632 (NCTN9632) was > 128 mg/L in each case.

Broadly, the minimal effective concentration is the lowest level tested that produced the effect sought. High values mean a need for much substance, low ones an effect from little substance. One may read the MIC as the least concentration at which growth counts as inhibited.
